Values of other authors as cited in patent publication US20050031668A1, “Implantable polymeric device for sustained release of nalmefene” (priority 2003, published 2005).

Legend:
[1] = not given; remark: listed apart in the source
[2] = in vivo
[3] = not given; remark: listed apart in the source
[4] = test system: μ, δ, and κ receptors
[5] = in vivo; remark: listed apart in the source

For `C=C1CC[C@@]2(O)[C@H]3Cc4ccc(O)c5c4[C@@]2(CCN3CC2CC2)[C@H]1O5` [nalmefene], the “rate of relapse compared with placebo or 10 mg nalmefene” value (40 mg oral, 21 alcohol-dependent patients) is listed as “significantly lower rate of relapse”, the “number of drinks per drinking day” value (40 and 10 mg doses) is listed as “significantly decreased” and the nausea ([1]; 20 or 80 mg/day orally) is listed as “Transient nausea”. The serious adverse events ([1]; 20 or 80 mg/day orally) was “no serious adverse events occurred”, the “proportion of nalmefene patients who relapsed” value ([1]; 20 or 80 mg/day orally, twelve weeks) was “One-third” and the “relapse to heavy drinking versus placebo” value ([1]; 20 or 80 mg/day orally, twelve-week study, 105 alcoholic patients) was “Fewer patients receiving nalmefene relapsed to heavy drinking”. The “number of abstinent days and self-reported craving” value ([1]; treated versus control groups) was “the same in treated and control groups”, the “efficacy in animal models of alcoholism” value [2] was “effective” and the half-life ([3]; compared with naltrexone) was “longer half-life”. For the same molecule, the serious adverse effects ([3]; in vivo) was “no serious adverse effects”, the agonist activity [4] was “no agonist activity” and the “opioid receptors acted on” value [4] was “acts on μ, δ, and κ receptors”.

In the case of `O=C1CC[C@@]2(O)[C@H]3Cc4ccc(O)c5c4[C@@]2(CCN3CC2CC2)[C@H]1O5` [naltrexone], the “opioid receptors acted on” value [4] is given as “primarily blocks μ receptors”, the “limitations of use: hepatotoxicity” value [5] is given as “dose-dependent hepatotoxic side effects” and the “limitations of use: nausea” value [5] is given as “intolerable nausea”.
